This note sets out measurements from patent US8765949B2, “CCR2 receptor antagonists and uses thereof” (Boehringer Ingelheim International GmbH, priority 2009, dated 2014).

The test concerns the target T1, CCR2 (Homo sapiens, UniProt P41597).
T1 construct: Membranes were prepared from THP-1 cells; endogenous in cells; host or cells: THP-1 (human acute monocytic leukaemia cells), membrane preparation
T1 sequence (P41597 1-360 isoform P41597-2): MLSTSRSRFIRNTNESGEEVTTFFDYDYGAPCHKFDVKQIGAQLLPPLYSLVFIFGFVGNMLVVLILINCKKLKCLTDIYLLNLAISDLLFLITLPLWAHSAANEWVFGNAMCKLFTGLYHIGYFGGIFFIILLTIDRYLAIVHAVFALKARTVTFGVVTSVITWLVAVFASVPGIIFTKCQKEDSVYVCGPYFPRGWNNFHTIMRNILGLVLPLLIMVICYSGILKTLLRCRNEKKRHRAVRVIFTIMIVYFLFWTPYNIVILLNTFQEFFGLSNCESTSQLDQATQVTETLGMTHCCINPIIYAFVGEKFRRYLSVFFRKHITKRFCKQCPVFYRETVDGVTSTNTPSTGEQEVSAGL
Nature of the test: CCR2 receptor membrane binding assay ([125I]MCP-1, THP-1 membranes, SPA beads). The conditions noted are these: dissociation constant hKi; THP-1 cell membranes, [125I]MCP-1, bound radioactivity after 8 h. The procedure: The above exemplary substances have been tested for binding to CCR2 using a binding assay as outlined herein below:
THP-1 cells (human acute monocytic leukaemia cells) were cultured under standardized conditions at 37° C. and 5% CO2 in a humidified incubator. THP-1 cells were cultivated in RPMI 1640 medium (Gibco 21875) containing 1% MEM-NEAA (Gibso 11140) 2 mM L-glutamine, 1.5 g/L sodium bicarbonate, 4.5 g/L glucose, 10 mM HEPES and 1.0 mM sodium pyruvate, 90%; 10% fetal calf serum (FCS Gibco 10500-064).
Membranes were prepared from THP-1 cells. THP-1 cells were centrifuged at 300×g at 4° C. for 10 min. The cell pellet was resuspendet in Phosphate Buffer Saline (PBS, including 10 μM Pefabloc and a protease inhibitor mix ‘complete’, Boehringer Mannheim (1 tablet/50 ml)), to a concentration of […]. The membrane preparation was performed by disrupting the cells by nitrogen […] (at 50 bar, for 1 h) in a “Nitrogen Bombe” (Parr Instrument). Cell debris was removed by centrifugation (800×g at 4° C., 1 min). The supernatant was centrifuged at 80000×g, 4° C. for 30 min to sediment the cell membranes. Usually 50 mg of protein (Bradford assay) were yielded from 1×10E9 cells. The membranes were resuspendet in 25 mM HEPES, 25 mM MgCl2, 1 mM CaCl2, 10% Glycerine for storage in aliquots at −80° C. in 25 mM HEPES, 25 mM MgCl2, 1 mM CaCl2, 10% Glycerine and stored at −80° C.
Receptor Membrane Binding Assay:
Perkin Elmer NEX 332 Jod 125 MCP-1, Stock: 2200 Ci/mmol solved in 2000 μl assay buffer, stored at −20° C. THP-1 membrane were adjusted with 25 mM HEPES, pH 7.2; 5 mM MgCl2; 0.5 mM CaCl2; 0.2% BSA assay buffer to a concentration of 2.5 μg/15 μl. Amersham Biosciences PVT-WGA Beads (RPNQ0001) were adjusted with assay buffer to a concentration of 0.24 mg/30 μl. For preparation of the membrane-bead-suspension membranes and beads were incubated for 30 min at RT under rotation (60 rpm) with a ratio of 1:2. Test compounds dissolved in 100% DMSO to a concentration of 10 mM and are further diluted with 100% DMSO to 1 mM. All additional compound dilutions were obtained with assay buffer, final 1% DMSO. Compounds, membrane-bead-suspension and [125I]MCP-1 (ca. 25000 cpm/10 μl) were incubated. Bound radioactivity was determined by scintillation counter after 8 h. Determination of affinity of test compounds (dissociation constant hKi) is calculated by iterative fitting of experimental data using the “easy sys” program, which is based on law of mass action (Schittkowski K. (1994), Numerische Mathematik, Vol. 68, 129-142).
Take `CO[C@H]1COCC[C@H]1NC1CCN(C(=O)c2ncnc(NC[C@@H]3CCC[C@H](c4ccc(C)cc4)O3)c2C)CC1` [Example 31]: the Ki came out at 276 nM.

`Cc1c(NC[C@@H]2CCC[C@H](c3ccc(C(C)(C)C#N)cc3)O2)ncnc1C(=O)N1CCC(N2CCC(N(C)S(C)(=O)=O)CC2)CC1` [Example 28f]: the Ki worked out at 78 nM.

As for `CO[C@H]1COCC[C@H]1NC1CCN(C(=O)c2nc(C)nc(NC[C@@H]3CCC[C@H](c4cccc(C)c4)O3)c2C)CC1` [Example 34], the Ki came to 63 nM. In the case of `CO[C@@H]1COCC[C@@H]1NC1CCN(C(=O)c2cc(NC[C@H]3CCC[C@@H](c4ccc(C(F)(F)F)cc4)O3)ncn2)CC1` [Example 28j] it was 1 nM; in that of `Cc1cccc([C@H]2CCC[C@@H](CNc3ncnc(C(=O)N4CCC(N5CCC(N(C)S(C)(=O)=O)CC5)CC4)c3C)O2)c1` [Example 23], 494 nM. For `Cc1c(NC[C@H]2CCC[C@@H](c3ccc(C(F)(F)F)nc3)O2)ncnc1C(=O)N1CCC(N2CCC(N(C)S(C)(=O)=O)CC2)CC1` [Example 25], the Ki was determined as 418 nM. For the compound `CO[C@@H]1COCC[C@@H]1NC1CCN(C(=O)c2ncnc(NC[C@@H]3CCC[C@H](c4ccc(OC(F)(F)F)cc4)O3)c2C)CC1` [Example 53d], the Ki is 19 nM.

For the compound `Cc1c(NC[C@H]2CCC[C@@H](c3ccc(C(F)(F)F)cc3)O2)ncnc1C(=O)N1CCC(N2CCC(N(C)S(C)(=O)=O)CC2)CC1` [Example 24], the Ki was found to be 4 nM. With `COC1CCN(C2CCN(C(=O)c3ncnc(NC[C@H]4CCC[C@@H](c5ccc(C(F)(F)F)cc5)O4)c3C)CC2)CC1` [Example 4] the figure was 26 nM. Consider `CO[C@H]1COCC[C@H]1NC1CCN(C(=O)c2ncnc(NC[C@@H]3CCC[C@H](c4ccc(Cl)cc4)O3)c2C)CC1` [Example 44], for which the Ki stood at 166 nM. On to `CO[C@H]1COCC[C@H]1NC1CCN(C(=O)c2ncnc(NC[C@@H]3CCC[C@H](c4ccc(C(F)(F)F)cc4)O3)c2C)CC1` [Example 36], for which the Ki worked out at 51 nM. With `COc1nc(NC[C@H]2CCC[C@@H](c3ccc(OC(F)(F)F)cc3)O2)c(C)c(C(=O)N2CCC(N[C@H]3CCOC[C@H]3OC)CC2)n1` [Example 53ae], the Ki was 0.4 nM. As for `Cc1c(NC[C@H]2CCC[C@@H](c3ccc(OC(F)(F)F)cc3)O2)ncnc1C(=O)N1CCC(N[C@H]2CCOC[C@H]2F)CC1` [Example 53aj], the Ki worked out at 0.7 nM. Regarding `CO[C@@H]1COCC[C@@H]1NC1CCN(C(=O)c2ncnc(NC[C@@H]3CCC[C@H](c4ccc(C(F)(F)F)cc4)O3)c2C)CC1` [Example 37], the Ki is 25 nM. In the case of `COc1cc(NC[C@H]2CCC[C@@H](c3ccc(C)cc3)O2)cc(C(=O)N2CCC(N[C@H]3CCOC[C@H]3OC)CC2)n1` [Example 28n] it was 38 nM.

As to `COc1nc(NC[C@H]2CCC[C@@H](c3ccccc3)O2)c(C)c(C(=O)N2CCC(N[C@@H]3CCOC[C@@H]3OC)CC2)n1` [Example 53af], the inhibition constant (Ki) amounted to 8 nM. Turning to `COc1nc(NC[C@H]2CCC[C@@H](c3ccc(C)cc3)O2)cc(C(=O)N2CCC(N[C@H]3CCOC[C@H]3OC)CC2)n1` [Example 53n], the inhibition constant Ki is 5 nM. In the case of `CO[C@@H]1COCC[C@@H]1NC1CCN(C(=O)c2ncnc(NC[C@H]3CCC[C@@H](c4ccccc4)O3)c2C)CC1` [Example 38] it was 6 nM; in that of `COC1COCCC1NC1CCN(C(=O)c2ncnc(NCC3CCCC(c4ccc(C(F)(F)F)o4)O3)c2C)CC1` (stereo not drawn) [Example 28e], 20 nM.

Regarding `COc1nc(NC[C@H]2CCC[C@@H](c3ccc(OC(F)(F)F)cc3)O2)cc(C(=O)N2CCC(N[C@H]3CCOC[C@H]3OC)CC2)n1` [Example 53r], the inhibitory constant (Ki) came out at 0.8 nM. Turning to `CO[C@@H]1COCC[C@@H]1NC1CCN(C(=O)c2ncnc(NC[C@H]3CCC[C@@H](c4ccc(C)cc4)O3)c2C)CC1` [Example 29], the inhibitory constant (Ki) turned out to be 4 nM. On to `Cc1c(NCC2CCCC(c3ccccc3)O2)ncnc1C(=O)N1CCC(N2CCC(N(C)S(C)(=O)=O)CC2)CC1` (stereo not drawn) [Example 10], for which the Ki was 142 nM.

Regarding `Cc1ccc([C@@H]2CCC[C@H](CNc3ncnc(C(=O)N4CCC(N5CCC(NS(C)(=O)=O)CC5)CC4)c3C)O2)cc1` [Example 9], the Ki was determined as 13 nM. With `Cc1c(NC[C@@H]2CCC[C@H](c3ccccc3)O2)ncnc1C(=O)N1CCC(N2CCC(N(C)S(C)(=O)=O)CC2)CC1` (single isomer, unassigned) [Example 12] the figure was 27 nM; with `Cc1c(NC[C@H]2CCC[C@@H](c3ccccc3)O2)ncnc1C(=O)N1CCC(N2CCC(N(C)S(C)(=O)=O)CC2)CC1` [Example 11], 53 nM.

Regarding `CO[C@H]1COCC[C@H]1NC1CCN(C(=O)c2cc(NC[C@H]3CCC[C@@H](c4ccc(C)cc4)O3)ncn2)CC1` [Example 28h], the inhibition constant (Ki) is 4 nM. Regarding `COC1COCCC1NC1CCN(C(=O)c2ncnc(NC[C@@H]3CCC[C@H](c4ccc(C)c(F)c4)O3)c2C)CC1` (stereo partly drawn) [Example 28c], the Ki stood at 0.4 nM.

For the compound `Cc1c(NCC2CCCC(c3ccc(F)cc3)O2)ncnc1C(=O)N1CCC(N2CCC(N(C)S(C)(=O)=O)CC2)CC1` (stereo not drawn) [Example 14], the Ki came out at 479 nM.

With `CO[C@H]1COCC[C@H]1NC1CCN(C(=O)c2ncnc(NC[C@@H]3CCC[C@H](c4cccc(C)c4)O3)c2C)CC1` [Example 32], the Ki was 333 nM.

Consider `CO[C@@H]1COCC[C@@H]1NC1CCN(C(=O)c2ncnc(NC[C@@H]3CCC[C@H](c4cccc(C)c4)O3)c2C)CC1` [Example 33], for which the Ki turned out to be 148 nM. With `CO[C@H]1COCC[C@H]1NC1CCN(C(=O)c2cc(NC[C@H]3CCC[C@@H](c4ccc(C(F)(F)F)cc4)O3)nc(C(F)(F)F)n2)CC1` [Example 53s] the figure was 0.2 nM; with `Cc1ccc([C@@H]2CCC[C@H](CNc3nc(C)nc(C(=O)N4CCC(N5CCC(N(C)S(C)(=O)=O)CC5)CC4)c3C)O2)cc1` [Example 18], 10 nM. Take `Cc1ccc([C@H]2CCC[C@@H](CNc3ncnc(C(=O)N4CCC(N5CCC(N(C)S(C)(=O)=O)CC5)CC4)c3C)O2)cc1F` [Example 28d]: the Ki came to 12 nM. With `CO[C@@H]1COCC[C@@H]1NC1CCN(C(=O)c2nc(C)nc(NC[C@@H]3CCC[C@H](c4cccc(C)c4)O3)c2C)CC1` [Example 35], the Ki was 96 nM. With `CO[C@H]1COCC[C@H]1NC1CCN(C(=O)c2cc(NC[C@H]3CCC[C@@H](c4ccc(OC(F)(F)F)cc4)O3)ncn2)CC1` [Example 28l] the figure was 2 nM; with `COc1nc(NC[C@H]2CCC[C@@H](c3ccc(C(F)(F)F)cc3)O2)c(C)c(C(=O)N2CCC(N[C@H]3CCOC[C@H]3OC)CC2)n1` [Example 53ac], 0.8 nM; with `COc1nc(NC[C@H]2CCC[C@@H](c3ccc(C)cc3)O2)c(C)c(C(=O)N2CCC(N[C@@H]3CCOC[C@@H]3OC)CC2)n1` [Example 53z], 3 nM. As for `CO[C@@H]1COCC[C@@H]1NC1CCN(C(=O)c2cc(NC[C@H]3CCC[C@@H](c4ccc(OC(F)(F)F)cc4)O3)nc(C(F)(F)F)n2)CC1` [Example 53l], the inhibition constant (Ki) was determined as 0.5 nM. With `Cc1ccc(C2CCC[C@H](CNc3ncnc(C(=O)N4CCC(N5CCCC(c6cccc(C(=O)O)c6)C5)CC4)c3C)O2)cc1` (stereo partly drawn) [Example 57] the figure was 1800 nM; with `Cc1c(NCC2CCCC(c3ccc(Cl)cc3)O2)ncnc1C(=O)N1CCC(N2CCC(N(C)S(C)(=O)=O)CC2)CC1` (stereo not drawn) [Example 15], 24 nM.

`Cc1c(NC[C@H]2CCC[C@@H](c3ccc(OC(F)(F)F)cc3)O2)ncnc1C(=O)N1CCC(N[C@@H]2CCOC[C@@H]2F)CC1` [Example 53ak]: the inhibition constant (Ki) is 0.8 nM. As to `Cc1cccc([C@@H]2CCC[C@H](CNc3ncnc(C(=O)N4CCC(N5CCC(N(C)S(C)(=O)=O)CC5)CC4)c3C)O2)c1` [Example 21], the Ki was found to be 11 nM.
